Results taken from patent US7405081B2, “Methods and kits for identifying scavengers of reactive oxygen species (ROS)” (priority 2001, dated 2008).
Marks after values point to notes of the source that are not given here.

Experiments:
[1] = tested on: katA-gfp fusion in AG6 cells; assay: Extracellular catalase added to IB plates, GFP expression of AG6 cells; assay type: cell-based, Agrobacterium tumefaciens; conditions: 1 or 5 microgram per ml in IB plates
Protocol: Catalase purchased from Sigma was added into IB plates at a final concentration of 1 or 5 microgram per ml. AG6 cells (carrying the katA-gfp fusion) were then grown on the IB plate. […] To ensure that the catalase in the IB medium was still active, hydrogen peroxide was dropped onto the catalase-containing plate. Air bubbles were instantly visible in the catalase-containing plate; no air bubble was found in the control catalase-free IB plate. […] Therefore, it can be concluded that extracellular catalase could not remove the intracellular hydrogen peroxide.

katA-gfp fusion = conditions: AG6 in MG/L, 30-120 μM H2O2, 2 hours
Protocol: To determine if H2O2 can induce the katA expression, AG6 was grown in MG/L liquid medium overnight at 28° C. The cells were harvested and resuspended in fresh MG/L liquid medium to a final concentration of OD600=0.5. Aliquots (2 ml) of the cultures were transferred into sterile tubes, and H2O2 was added to the tubes to final concentrations of 30 μM, 60 μM and 120 μM. The cell suspensions were incubated at 28° C. for 2 hours. Then 1 ml of each cell suspension was centrifuged, washed and resuspended in the Laemmli (1970) sample buffer, and subjected to Western blot as described later.
To determine whether the expression of katA can be induced by H2O2, like some of other bacterial catalases (Loewen, 1997), AG6 was treated with low concentrations of H2O2 (30-120 μM) in liquid MG/L medium and the katA-gfp expression levels were then determined.

[2] = Catalase activity assay in whole bacterial cells (Amplex Red Catalase Assay Kit); assay type: cell-based, Agrobacterium tumefaciens; conditions: whole cells grown on IB plates
Protocol: Catalase activity assay: The catalase activity in whole bacterial cells was determined as previously described (Maciver and Hansen, 1996) except using the Amplex Red Catalase Assay Kit (Molecular Probes Inc., USA). Briefly, A. tumefaciens strains were grown at 28° C. for 24 hr on IB plates. The cells were harvested, washed and resuspended at OD600=1.0 in 50 mM phosphate-buffer (pH 7.4). For the strains with the wild type katA [A348, AG6 (pXQ9), and AG6 (pXQ23)], 100 μl cell suspension of each sample was incubated with 50 μl 40 μM H2O2 at time intervals of 0, 30 sec, 1 min and 2 min.
For the strains with the katA mutants [AG6, AG6 (pXQ11), AG6 (pXQ22), AG6 (pXQ26) and AG6 (pXQ27)], 100 μl cell suspension of each sample was incubated with 50 μl 5 μM H2O2 at time intervals of 0, 1, 2, and up to 6 min. The amount of H2O2 left after degradation by the bacterial catalase was then determined by adding 50 μl Amplex Red reagent N-acetyl-3, 7-dihydroxyphenoxazine at 25 μM and 0.4 U/ml horse radish peroxidase provided by the kit. The fluorometric assay was conducted by the same procedure as described above for the measurement of intracellular H2O2. The cell suspensions without the added H2O2 were used as the blank. Solutions of crystalline bovine catalase (Sigma) were used to standardize this assay.
The catalase activity in whole bacterial cells was determined as described above in Example 1 (“Catalase activity assay”).

aopB-gfp = aopB-gfp expression in strain CGI1 (specificity control); assay type: cell-based, Agrobacterium tumefaciens; conditions: pXQ9 introduced into CGI1, IB (pH 5.5)
Protocol: To study the katA gene expression in different genetic backgrounds, A. tumefaciens strains A348, AG6, AG6 (pSW172), AG6 (pXQ9), A613, CGI1 and CGI1 (pXQ9) were grown at 28° C. for 24 hours on IB (pH 5.5) agar plates. The fluorescence of each strain was determined as described above.
To determine if katA could specifically repress katA-gfp, pXQ9 was introduced into a different mini-Tn5 transposon mutant strain CGI1, which contained the transposon insertion at a chromosomal gene aopB and could produce bright green fluorescence under UV light.

[3] = Peroxidase activity staining of cell extracts; assay type: biochemical, Agrobacterium tumefaciens; conditions: same cell extracts

Catalase
Repression of katA-gfp expression by catalase added to the medium [1]: did not repress katA-gfp expression

OO [H2O2, hydrogen peroxide]
katA-gfp expression levels in presence of H2O2 (katA-gfp fusion): increased significantly

KatA: Agrobacterium tumefaciens catalase encoded by katA; putative protein of 723 amino acids, 78.7 kDa
Catalase activity ([2]; gene on plasmid in AG6, driven by katA and lac promoters (pXQ23, pXQ26, pXQ27)): 77145.5 ± 440.3 unit/10^8 cells | Catalase activity ([2]; gene on plasmid in AG6, driven by katA promoter (pXQ9, pXQ11, pXQ22)): 3997.3 ± 459.1 unit/10^8 cells | Catalase activity ([2]; strain AG6 (katA disrupted by mini-Tn5)): 175.2 ± 20.2^c unit/10^8 cells | Catalase activity ([2]; wild type strain A348): 1486.2 ± 149.5 unit/10^8 cells | Repression of aopB-gfp expression (aopB-gfp): did not repress | Peroxidase activity associated with the catalase activity bands [3]: no peroxidase activity
